Results taken from patent US20180200257A1, “METHODS FOR THE TREATMENT OF INFLAMMATORY DISORDERS” (Galapagos NV, priority 2015, published 2018).

Test system: subjects with moderately to severely active RA who have an inadequate response to methotrexate (MTX)
Assay: Study 1 (add-on to MTX) - Aspartate Aminotransferase (AST) levels
Type: in vivo, human
Conditions: 24 weeks results
Protocol: Double-blind, placebo-controlled add on study in subjects with moderately to severely active RA who have an inadequate response to methotrexate (MTX) (oral or parenteral).
595 subjects randomized to one of 6 dose regimens of Compound 1 (dosed as [Compound 1:HCl:3H2O]) (3 dose levels administered either once or twice daily) or placebo on top of each subject's stable dose of MTX.
Compound 1 (dosed as [Compound 1:HCl:3H2O]) is dosed for twelve weeks once daily (q.d.) (50 mg, 100 mg or 200 mg) or twice daily (b.i.d.) (25 mg, 50 mg or 100 mg); or placebo.
At Week 12, the subjects on placebo who have not achieved 20% improvement in swollen joint count (SJC66) and tender joint count (TJC68) are re-randomized automatically to receive Compound 1 (dosed as a [Compound 1:HCl:3H2O]) either at 100 mg q.d. or 50 mg b.i.d. doses in a blinded fashion; subjects on 50 mg q.d. who have not achieved 20% improvement in SJC66 and TJC68 will be assigned to 100 mg q.d. and subjects on 25 mg b.i.d. that have not achieved a 20% improvement in SJC66 and TJC68 will be assigned to 50 mg b.i.d. Subjects who switch treatment at week 12 are handled as if they discontinued at week 12 for the purpose of statistical analysis, whereas subjects in the other groups will maintain their randomized treatment until Week 24.
AST levels determination is available at Quest Diagnostics, Clinical Trials, Quest House, 125-135 Staines Road, Hounslow, Middlesex, TW3 3JB, United Kingdom under Catalogue n#84450. For Study 3, the data are obtained at BARC Europe, 3B,Industrie Park, Zwijnaarde, B-9052 Ghent, Belgium.
AST catalyzes the transamination of aspartate and 2-oxoglutarate, forming L-glutamate and oxalacetate. The oxalacetate is reduced to L-malate by malate dehydrogenase, whilst NADH is converted to NAD+, measured spectrophotometrically. Guidelines for the AST value have been issued by the association for Clinical Biochemistry and Laboratory Medicine, 130-132 Tooley Street LONDON SE1 2TU, united Kingdom, wherein the AST value should be below 34 U/l in Female and below 45 U/L in male. As disclosed in the respective study protocols for Study 1 or 2, at week 12, depending on the outcome of their treatment, the subjects may be continued in their initial treatment course, or reassigned to another treatment group in a randomized blinded fashion until week 24. Therefore, the number of subjects (N) for the period of either 12 weeks, or 24 weeks is provided to reflect this redistribution at week 12.

[1] = continued 100 mg b.i.d., week 1
[2] = continued 100 mg b.i.d., week 2
[3] = continued 100 mg b.i.d., week 4
[4] = continued 100 mg b.i.d., week 8
[5] = continued 100 mg b.i.d., week 12
[6] = continued 100 mg b.i.d., week 16
[7] = continued 100 mg b.i.d., week 20
[8] = continued 100 mg b.i.d., week 24
[9] = from 25 mg b.i.d. to 50 mg b.i.d. at 12 weeks, week 1
[10] = from 25 mg b.i.d. to 50 mg b.i.d. at 12 weeks, week 2
[11] = from 25 mg b.i.d. to 50 mg b.i.d. at 12 weeks, week 4
[12] = from 25 mg b.i.d. to 50 mg b.i.d. at 12 weeks, week 8
[13] = from 25 mg b.i.d. to 50 mg b.i.d. at 12 weeks, week 12
[14] = from 25 mg b.i.d. to 50 mg b.i.d. at 12 weeks, week 16
[15] = from 25 mg b.i.d. to 50 mg b.i.d. at 12 weeks, week 20
[16] = from 25 mg b.i.d. to 50 mg b.i.d. at 12 weeks, week 24
[17] = from 50 mg q.d. to 100 mg q.d. at 12 weeks, week 1
[18] = from 50 mg q.d. to 100 mg q.d. at 12 weeks, week 2
[19] = from 50 mg q.d. to 100 mg q.d. at 12 weeks, week 4
[20] = from 50 mg q.d. to 100 mg q.d. at 12 weeks, week 8
[21] = from 50 mg q.d. to 100 mg q.d. at 12 weeks, week 12
[22] = from 50 mg q.d. to 100 mg q.d. at 12 weeks, week 16
[23] = from 50 mg q.d. to 100 mg q.d. at 12 weeks, week 20
[24] = from 50 mg q.d. to 100 mg q.d. at 12 weeks, week 24
[25] = placebo switched to 50 mg b.i.d. at week 12, week 16
[26] = placebo switched to 50 mg b.i.d. at week 12, week 20
[27] = placebo switched to 50 mg b.i.d. at week 12, week 24
[28] = placebo switched to 100 mg q.d. at week 12, week 16
[29] = placebo switched to 100 mg q.d. at week 12, week 20
[30] = placebo switched to 100 mg q.d. at week 12, week 24

## O=C(Nc1nc2cccc(-c3ccc(CN4CCS(=O)(=O)CC4)cc3)n2n1)C1CC1 [Compound 1, cyclopropanecarboxylic acid {5-[4-(1,1-dioxo-thiomorpholin-4-ylmethyl)-phenyl]-[1,2,4]triazolo[1,5-a]pyridin-2-yl}-amide]
Continued 50 mg q.d., week 12
  Study 1 - AST Mean CFB: 0.6 IU/L
  Study 1 - AST Mean percentage CFB: 11.4%
Continued 50 mg q.d., week 16
  Study 1 - AST Mean CFB: 1.4 IU/L
  Study 1 - AST Mean percentage CFB: 15.1%
Continued 50 mg q.d., week 20
  Study 1 - AST Mean CFB: 2.1 IU/L
  Study 1 - AST Mean percentage CFB: 16.8%
Continued 50 mg q.d., week 24
  Study 1 - AST Mean CFB: 1.0 IU/L
  Study 1 - AST Mean percentage CFB: 12.9%
[1]
  Study 1 - AST Mean CFB: 1.4 IU/L
  Study 1 - AST Mean percentage CFB: 10.0%
[2]
  Study 1 - AST Mean CFB: 2.3 IU/L
  Study 1 - AST Mean percentage CFB: 14.1%
[3]
  Study 1 - AST Mean CFB: 2.6 IU/L
  Study 1 - AST Mean percentage CFB: 19.1%
[4]
  Study 1 - AST Mean CFB: 1.9 IU/L
  Study 1 - AST Mean percentage CFB: 17.4%
[5]
  Study 1 - AST Mean CFB: 2.5 IU/L
  Study 1 - AST Mean percentage CFB: 20.1%
[6]
  Study 1 - AST Mean CFB: 3.5 IU/L
  Study 1 - AST Mean percentage CFB: 25.2%
[7]
  Study 1 - AST Mean CFB: 3.0 IU/L
  Study 1 - AST Mean percentage CFB: 23.1%
[8]
  Study 1 - AST Mean CFB: 5.0 IU/L
  Study 1 - AST Mean percentage CFB: 37.6%
Continued 100 mg q.d., week 1
  Study 1 - AST Mean CFB: 3.0 IU/L
  Study 1 - AST Mean percentage CFB: 13.5%
Continued 100 mg q.d., week 2
  Study 1 - AST Mean CFB: 1.0 IU/L
  Study 1 - AST Mean percentage CFB: 9.4%
Continued 100 mg q.d., week 4
  Study 1 - AST Mean CFB: 1.6 IU/L
  Study 1 - AST Mean percentage CFB: 11.2%
Continued 100 mg q.d., week 8
  Study 1 - AST Mean CFB: 2.8 IU/L
  Study 1 - AST Mean percentage CFB: 17.1%
Continued 100 mg q.d., week 12
  Study 1 - AST Mean CFB: 2.4 IU/L
  Study 1 - AST Mean percentage CFB: 15.7%
Continued 100 mg q.d., week 16
  Study 1 - AST Mean CFB: 1.5 IU/L
  Study 1 - AST Mean percentage CFB: 11.5%
Continued 100 mg q.d., week 20
  Study 1 - AST Mean CFB: 2.6 IU/L
  Study 1 - AST Mean percentage CFB: 19.2%
Continued 100 mg q.d., week 24
  Study 1 - AST Mean CFB: 4.4 IU/L
  Study 1 - AST Mean percentage CFB: 28.6%
Continued 200 mg q.d., week 1
  Study 1 - AST Mean CFB: 3.1 IU/L
  Study 1 - AST Mean percentage CFB: 16.1%
Continued 200 mg q.d., week 2
  Study 1 - AST Mean CFB: 1.9 IU/L
  Study 1 - AST Mean percentage CFB: 12.8%
Continued 200 mg q.d., week 4
  Study 1 - AST Mean CFB: 2.7 IU/L
  Study 1 - AST Mean percentage CFB: 18.7%
Continued 200 mg q.d., week 8
  Study 1 - AST Mean CFB: 4.5 IU/L
  Study 1 - AST Mean percentage CFB: 27.2%
Continued 200 mg q.d., week 12
  Study 1 - AST Mean CFB: 4.8 IU/L
  Study 1 - AST Mean percentage CFB: 28.8%
Continued 200 mg q.d., week 16
  Study 1 - AST Mean CFB: 6.8 IU/L
  Study 1 - AST Mean percentage CFB: 36.8%
Continued 200 mg q.d., week 20
  Study 1 - AST Mean CFB: 4.0 IU/L
  Study 1 - AST Mean percentage CFB: 23.3%
Continued 200 mg q.d., week 24
  Study 1 - AST Mean CFB: 5.2 IU/L
  Study 1 - AST Mean percentage CFB: 30.6%
[9]
  Study 1 - AST Mean CFB: −5.0 IU/L
  Study 1 - AST Mean percentage CFB: −12.5%
[10]
  Study 1 - AST Mean CFB: −2.3 IU/L
  Study 1 - AST Mean percentage CFB: −0.7%
[11]
  Study 1 - AST Mean CFB: −2.9 IU/L
  Study 1 - AST Mean percentage CFB: −2.7%
[12]
  Study 1 - AST Mean CFB: −4.1 IU/L
  Study 1 - AST Mean percentage CFB: −7.2%
[13]
  Study 1 - AST Mean CFB: −1.0 IU/L
  Study 1 - AST Mean percentage CFB: 4.5%
[14]
  Study 1 - AST Mean CFB: −3.3 IU/L
  Study 1 - AST Mean percentage CFB: −2.3%
[15]
  Study 1 - AST Mean CFB: −0.6 IU/L
  Study 1 - AST Mean percentage CFB: 8.2%
[16]
  Study 1 - AST Mean CFB: 0.6 IU/L
  Study 1 - AST Mean percentage CFB: 14.2%
[17]
  Study 1 - AST Mean CFB: 0.3 IU/L
  Study 1 - AST Mean percentage CFB: 5.0%
[18]
  Study 1 - AST Mean CFB: 0.0 IU/L
  Study 1 - AST Mean percentage CFB: 3.4%
[19]
  Study 1 - AST Mean CFB: −0.5 IU/L
  Study 1 - AST Mean percentage CFB: 3.6%
[20]
  Study 1 - AST Mean CFB: −0.4 IU/L
  Study 1 - AST Mean percentage CFB: 3.0%
[21]
  Study 1 - AST Mean CFB: 0.1 IU/L
  Study 1 - AST Mean percentage CFB: 4.2%
[22]
  Study 1 - AST Mean CFB: −0.9 IU/L
  Study 1 - AST Mean percentage CFB: −0.2%
[23]
  Study 1 - AST Mean CFB: 0.4 IU/L
  Study 1 - AST Mean percentage CFB: 4.9%
[24]
  Study 1 - AST Mean CFB: −1.7 IU/L
  Study 1 - AST Mean percentage CFB: −2.5%
[25]
  Study 1 - AST Mean CFB: 2.1 IU/L
  Study 1 - AST Mean percentage CFB: 14.9%
[26]
  Study 1 - AST Mean CFB: −0.1 IU/L
  Study 1 - AST Mean percentage CFB: 1.9%
[27]
  Study 1 - AST Mean CFB: 3.5 IU/L
  Study 1 - AST Mean percentage CFB: 19.7%
[28]
  Study 1 - AST Mean CFB: 1.3 IU/L
  Study 1 - AST Mean percentage CFB: 1.0%
[29]
  Study 1 - AST Mean CFB: 1.2 IU/L
  Study 1 - AST Mean percentage CFB: 9.8%
[30]
  Study 1 - AST Mean CFB: 3.2 IU/L
  Study 1 - AST Mean percentage CFB: 23.1%
